Measurements published in patent US6693216B2, “Calcium double salts” (Nutrinova Nutrition Specialties & Food Ingredients GmbH, priority 2000, dated 2004).
Where two headings read alike, the source gives them in different places.

Assays:
[1] = sealed
From the text: Salts prepared as in example 1 were dried, stored under the specified conditions without the addition of other substances and checked at regular intervals visually for discoloration: […]

Lactic acid bacteria = conditions: Part II, 1 g/l in apple juice pH 4.5, 25° C.
Clostridia = conditions: Part II, 1 g/l in apple juice pH 4.5, 25° C.
Bacilli = conditions: Part II, 1 g/l in apple juice pH 4.5, 25° C.
Thermophilic bacilli = conditions: Part II, 1 g/l in apple juice pH 4.5, 25° C.
Acetic acid bacteria = conditions: Part II, 1 g/l in apple juice pH 4.5, 25° C.
Yeasts = conditions: Part II, 1 g/l in apple juice pH 4.5, 25° C.
Molds I = conditions: Part II, 1 g/l in apple juice pH 4.5, 25° C.
Molds II = conditions: Part II, 1 g/l in apple juice pH 4.5, 25° C.
Gram-negative bacteria = conditions: Part II; for Number of surviving microorganisms per g of contaminated sample, Gram-negative bacteria: 1 g/l in apple juice pH 4.5, 25° C.
Gram-positive bacteria = conditions: Part II, 1 g/l in apple juice pH 4.5, 25° C.
[2] = 1 day after inoculation (2.7 × 10^4)
[3] = 3 days after inoculation (2.7 × 10^4)
[4] = 7 days after inoculation (2.7 × 10^4)
[5] = 14 days after inoculation (2.7 × 10^4)

With C/C=C/C=C/C(=O)[O-].CC(=O)[O-].[Ca+2] [calcium acetate sorbate] the “Time after yellow-brown discoloration of a 1% strength aqueous solution” value (from here on “Time … of a 1% strength aqueous solution”) ([1]; dark at 7° C.) was greater than 12 months />12 months, the “Time after yellow-brown discoloration of the powder” value (shortened to “Time … of the powder”) ([1]; dark at 7° C.) was 12 months />12 months and the “Time … of a 1% strength aqueous solution” value ([1]; dark at 25° C.) was greater than 12 months />12 months. For the same molecule, the “Time … of the powder” value ([1]; dark at 25° C.) was 12 months />12 months, the “Time … of a 1% strength aqueous solution” value ([1]; under sunlight at 7° C.) was 12 months />12 months and the “Time … of the powder” value ([1]; under sunlight at 7° C.) was 12 months />12 months. The “Time … of a 1% strength aqueous solution” value ([1]; under sunlight at 25° C.) was 12 months />12 months, the “Time … of the powder” value ([1]; under sunlight at 25° C.) was 12 months />12 months and the “Number of surviving microorganisms per g of contaminated sample, Lactic acid bacteria” value (Lactic acid bacteria; [2]) was 5.5 × 10^3 CFU/g. For the same molecule, the “Number of surviving microorganisms per g of contaminated sample, Lactic acid bacteria” value (Lactic acid bacteria; [3]) was less than 100 CFU/g, the “Number of surviving microorganisms per g of contaminated sample, Lactic acid bacteria” value (Lactic acid bacteria; [4]) was less than 10 CFU/g and the “Number of surviving microorganisms per g of contaminated sample, Lactic acid bacteria” value (Lactic acid bacteria; [5]) was less than 10 CFU/g. For the same molecule, the “Number of surviving microorganisms per g of contaminated sample, Clostridia” value (Clostridia; 1 day after inoculation (2.9 × 10^4)) was 7.0 × 10^2 CFU/g, the “Number of surviving microorganisms per g of contaminated sample, Clostridia” value (Clostridia; 3 days after inoculation (2.9 × 10^4)) was less than 100 CFU/g and the “Number of surviving microorganisms per g of contaminated sample, Clostridia” value (Clostridia; 7 days after inoculation (2.9 × 10^4)) was less than 10 CFU/g. For the same molecule, the “Number of surviving microorganisms per g of contaminated sample, Clostridia” value (Clostridia; 14 days after inoculation (2.9 × 10^4)) was less than 10 CFU/g, the “Number of surviving microorganisms per g of contaminated sample, Bacilli” value (“Number … per g of contaminated sample, Bacilli” below) (Bacilli; 1 day after inoculation (3.3 × 10^4)) was 2.5 × 10^3 CFU/g and the “Number … per g of contaminated sample, Bacilli” value (Bacilli; 3 days after inoculation (3.3 × 10^4)) was 1.7 × 10^3 CFU/g. For the same molecule, the “Number … per g of contaminated sample, Bacilli” value (Bacilli; 7 days after inoculation (3.3 × 10^4)) was 1.7 × 10^3 CFU/g, the “Number … per g of contaminated sample, Bacilli” value (Bacilli; 14 days after inoculation (3.3 × 10^4)) was 1.4 × 10^3 CFU/g and the “Number of surviving microorganisms per g of contaminated sample, Thermophilic bacilli” value (Thermophilic bacilli; 1 day after inoculation (1.3 × 10^4)) was 2.3 × 10^3 CFU/g. For the same molecule, the “Number of surviving microorganisms per g of contaminated sample, Thermophilic bacilli” value (Thermophilic bacilli; 3 days after inoculation (1.3 × 10^4)) was 1.1 × 10^3 CFU/g, the “Number of surviving microorganisms per g of contaminated sample, Thermophilic bacilli” value (Thermophilic bacilli; 7 days after inoculation (1.3 × 10^4)) was 1.0 × 10^2 CFU/g and the “Number of surviving microorganisms per g of contaminated sample, Thermophilic bacilli” value (Thermophilic bacilli; 14 days after inoculation (1.3 × 10^4)) was less than 10 CFU/g. For the same molecule, the “Number of surviving microorganisms per g of contaminated sample, Acetic acid bacteria” value (Acetic acid bacteria; 1 day after inoculation (2.8 × 10^4)) was 2.5 × 10^4 CFU/g, the “Number of surviving microorganisms per g of contaminated sample, Acetic acid bacteria” value (Acetic acid bacteria; 3 days after inoculation (2.8 × 10^4)) was 6.5 × 10^3 CFU/g and the “Number of surviving microorganisms per g of contaminated sample, Acetic acid bacteria” value (Acetic acid bacteria; 7 days after inoculation (2.8 × 10^4)) was 1.7 × 10^5 CFU/g. For the same molecule, the “Number of surviving microorganisms per g of contaminated sample, Acetic acid bacteria” value (Acetic acid bacteria; 14 days after inoculation (2.8 × 10^4)) was 1.6 × 10^5 CFU/g, the “Number of surviving microorganisms per g of contaminated sample, Yeasts” value (shortened to “Number … per g of contaminated sample, Yeasts”) (Yeasts; 1 day after inoculation (2.6 × 10^4)) was 1.3 × 10^4 CFU/g and the “Number … per g of contaminated sample, Yeasts” value (Yeasts; 3 days after inoculation (2.6 × 10^4)) was 3.4 × 10^3 CFU/g. The “Number … per g of contaminated sample, Yeasts” value (Yeasts; 7 days after inoculation (2.6 × 10^4)) was less than 100 CFU/g, the “Number … per g of contaminated sample, Yeasts” value (Yeasts; 14 days after inoculation (2.6 × 10^4)) was less than 10 CFU/g and the “Number of surviving microorganisms per g of contaminated sample, Molds I” value (Molds I; 1 day after inoculation (2.2 × 10^4)) was 3.7 × 10^3 CFU/g. For the same molecule, the “Number of surviving microorganisms per g of contaminated sample, Molds I” value (Molds I; 3 days after inoculation (2.2 × 10^4)) was 5.0 × 10^2 CFU/g, the “Number of surviving microorganisms per g of contaminated sample, Molds I” value (Molds I; 7 days after inoculation (2.2 × 10^4)) was 1.0 × 10^2 CFU/g and the “Number of surviving microorganisms per g of contaminated sample, Molds I” value (Molds I; 14 days after inoculation (2.2 × 10^4)) was less than 100 CFU/g. For the same molecule, the “Number of surviving microorganisms per g of contaminated sample, Molds II” value (“Number … per g of contaminated sample, Molds II” below) (Molds II; 1 day after inoculation (2.5 × 10^4)) was 4.4 × 10^3 CFU/g, the “Number … per g of contaminated sample, Molds II” value (Molds II; 3 days after inoculation (2.5 × 10^4)) was less than 100 CFU/g and the “Number … per g of contaminated sample, Molds II” value (Molds II; 7 days after inoculation (2.5 × 10^4)) was less than 10 CFU/g. The “Number … per g of contaminated sample, Molds II” value (Molds II; 14 days after inoculation (2.5 × 10^4)) was less than 10 CFU/g, the “Growth of Gram-negative bacteria” value (Gram-negative bacteria; 1 g/l in apple juice pH 4.5) was “substantially inhibited” and the “Number of surviving microorganisms per g of contaminated sample, Gram-negative bacteria” value (Gram-negative bacteria; [2]) was 9.0 × 10^3 CFU/g. The “Number of surviving microorganisms per g of contaminated sample, Gram-negative bacteria” value (Gram-negative bacteria; [3]) was 3.2 × 10^3 CFU/g, the “Number of surviving microorganisms per g of contaminated sample, Gram-negative bacteria” value (Gram-negative bacteria; [4]) was 1.5 × 10^3 CFU/g and the “Number of surviving microorganisms per g of contaminated sample, Gram-negative bacteria” value (Gram-negative bacteria; [5]) was 4.2 × 10^4 CFU/g. The “Number of surviving microorganisms per g of contaminated sample, Gram-positive bacteria” value (Gram-positive bacteria; 1 day after inoculation (2.1 × 10^4)) was 2.5 × 10^4 CFU/g, the “Number of surviving microorganisms per g of contaminated sample, Gram-positive bacteria” value (Gram-positive bacteria; 3 days after inoculation (2.1 × 10^4)) was 6.2 × 10^3 CFU/g and the “Number of surviving microorganisms per g of contaminated sample, Gram-positive bacteria” value (Gram-positive bacteria; 7 days after inoculation (2.1 × 10^4)) was 2.7 × 10^3 CFU/g. For the same molecule, the “Number of surviving microorganisms per g of contaminated sample, Gram-positive bacteria” value (Gram-positive bacteria; 14 days after inoculation (2.1 × 10^4)) was less than 10 CFU/g, the “Preservative action against the microorganisms used” value (all microorganisms used; 1 g/l in apple juice pH 4.5, up to 14 days) was “acts well and persistently against all microorganisms used except for acetic acid bacteria and bacilli” and the “Preservative action compared with the single salts” value (all microorganisms used; same concentration, 1 g/l in apple juice pH 4.5) was “acts surprisingly better than calcium acetate (in particular against lactic acid bacteria, yeasts, molds and Gram-positive bacteria) or calcium sorbate (in particular against lactic acid bacteria) used alone”.
